Test results as given in patent publication US8916567B2, “Certain crystalline hydrates, pharmaceutical compositions thereof and methods for preparation and use thereof” (Universal Technology Alliance, Inc., priority 2009, dated 2014).

Columns and labels:
[1] = Solubility in different solvents according to Chinese Pharmacopeia (2005 edition); type: physicochemical; conditions: for Result: at the given solute:solvent ratio
Experimental: The solubility of the (S)—[N-3-(3′-fluoro-4′-(4″-phenylpiperazinyl))phenyl-2-oxo-5-oxazolelidinyl]methylacetamide hydrates was tested with different solvents, and the test results are shown in Tables 15-19. The solubility was measured according to Chinese Pharmacopeia (2005 edition).

[2] = tested on: Staphylococcus aureus; assay: Minimum inhibitory concentration (MIC) in vitro, agar dilution method, quality control strain; type: cell-based; conditions: strain S. AT C C25923 (Table 7 No. 1); hydrate
Procedure, shortened: (§1)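 CLSI agar dilution; clinical isolates, Sichuan/Beijing, Mar 2007–May 2008. Stock in DMSO, diluted with sterile water. Read-out: MIC per strain, summarised as MIC50/MIC90/range.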

[3] = tested on: E. feacalis; assay: Minimum inhibitory concentration (MIC) in vitro, agar dilution method; type: cell-based; conditions: hydrate
Procedure, shortened: as §1

[4] = tested on: Staphylococcus aureus MRSA; assay: as above; type: cell-based; conditions: hydrate
Procedure, shortened: as §1

[5] = tested on: E. feacium; assay: as above; type: cell-based; conditions: hydrate
Procedure, shortened: as §1

[6] = tested on: S. epidermidis MRSE; assay: as above; type: cell-based; conditions: hydrate
Procedure, shortened: as §1

[7] = tested on: S. epidermidis MSSE; assay: as above; type: cell-based; conditions: hydrate
Procedure, shortened: as §1

[8] = tested on: Staphylococcus aureus MSSA; assay: as above; type: cell-based; conditions: hydrate
Procedure, shortened: as §1

[9] = E. feacalis (5 strains), clinically isolated
[10] = S. MRSA (10 strains), clinically isolated
[11] = E. feacium (5 strains), clinically isolated
[12] = S. ep MRSE (10 strains), clinically isolated
[13] = S. ep MSSE (10 strains), clinically isolated
[14] = S. MSSA (11 strains), clinically isolated

What does the source list for `CC(=O)NC[C@H]1CN(c2ccc(N3CCN(c4ccccc4)CC3)c(F)c2)C(=O)O1` [2/7 hydrate, (S)—[N-3-(3′-fluoro-4′-(4″-phenylpiperazinyl))phenyl-2-oxo-5-oxazolidinyl]methyl acetamide 2/7 hydrate]?
Solubility compared with the anhydride ([1]; different solvents): sometimes more soluble than the anhydride; Result ([1]; solvent 0.1N Hydrochloric acid): Dissolved; Result ([1]; solvent 0.1N Sodium hydroxide): Insoluble; Result ([1]; solvent Acetonitrile): Dissolved; Result ([1]; solvent Ethanol): Dissolved; Result ([1]; solvent Methanol): Dissolved; Result ([1]; solvent Water, hydrate): Dissolved; MIC [2]: 0.5 µg/mL; MIC50 [3, 9]: 0.25 µg/mL; MIC90 [3, 9]: 0.5 µg/mL; MICrange [3, 9]: 0.125 to 0.5 µg/mL; MIC ([3]; strain Efa 116 (Table 8 No. 16)): 0.5 µg/mL; MIC ([3]; strain Efa 907 (Table 8 No. 19)): 0.25 µg/mL; MIC ([3]; strain Efa 3006 (Table 8 No. 18)): 0.25 µg/mL; MIC ([3]; strain Efa 33748 (Table 8 No. 17)): 0.5 µg/mL; MIC50 [4, 10]: 0.5 µg/mL; MIC90 [4, 10]: 0.5 µg/mL; MICrange [4, 10]: 0.5 to 1 µg/mL; MIC ([4]; strain S. MRSA 29 (Table 7 No. 15)): 0.5 µg/mL; MIC ([4]; strain S. MRSA 101 (Table 7 No. 14)): 1 µg/mL; MIC ([4]; strain S. MRSA 201 (Table 7 No. 13)): 0.5 µg/mL; MIC ([4]; strain S. MRSA B27 (Table 7 No. 21)): 0.5 µg/mL; MIC ([4]; strain S. MRSA B105 (Table 7 No. 17)): 0.5 µg/mL; MIC ([4]; strain S. MRSA B143 (Table 7 No. 19)): 0.5 µg/mL; MIC ([4]; strain S. MRSA B151 (Table 7 No. 20)): 0.5 µg/mL; MIC ([4]; strain S. MRSA B164 (Table 7 No. 16)): 0.5 µg/mL; MIC ([4]; strain S. MRSA B199 (Table 7 No. 22)): 0.5 µg/mL; MIC ([4]; strain S. MRSA B617 (Table 7 No. 18)): 0.5 µg/mL; MIC50 [5, 11]: 1 µg/mL; MIC90 [5, 11]: 1 µg/mL; MICrange [5, 11]: 0.5 to 1 µg/mL; MIC ([5]; strain Efm 98 (Table 8 No. 21)): 0.5 µg/mL; MIC ([5]; strain Efm 171 (Table 8 No. 25)): 1 µg/mL; MIC ([5]; strain Efm 197 (Table 8 No. 22)): 0.5 µg/mL; MIC ([5]; strain Efm N3 (Table 8 No. 23)): 1 µg/mL; MIC ([5]; strain Efm N4 (Table 8 No. 24)): 1 µg/mL; MIC50 [6, 12]: 0.5 µg/mL; MIC90 [6, 12]: 0.5 µg/mL; MICrange [6, 12]: 0.25 to 0.5 µg/mL; MIC ([6]; strain S. ep MRSE4 (Table 8 No. 9)): 0.25 µg/mL; MIC ([6]; strain S. ep MRSE20 (Table 8 No. 6)): 0.5 µg/mL; MIC ([6]; strain S. ep MRSE87 (Table 8 No. 13)): 0.5 µg/mL; MIC ([6]; strain S. ep MRSE90 (Table 8 No. 10)): 0.5 µg/mL; MIC ([6]; strain S. ep MRSE101 (Table 8 No. 7)): 0.25 µg/mL; MIC ([6]; strain S. ep MRSE105 (Table 8 No. 11)): 0.5 µg/mL; MIC ([6]; strain S. ep MRSE140 (Table 8 No. 14)): 0.5 µg/mL; MIC ([6]; strain S. ep MRSE142 (Table 8 No. 12)): 0.5 µg/mL; MIC ([6]; strain S. ep MRSE210 (Table 8 No. 15)): 0.5 µg/mL; MIC ([6]; strain S. ep MRSE211 (Table 8 No. 8)): 0.5 µg/mL; MIC50 [7, 13]: 0.5 µg/mL; MIC90 [7, 13]: 0.5 µg/mL; MICrange [7, 13]: 0.25 to 0.5 µg/mL; MIC ([7]; strain S. ep MSSE87 (Table 7 No. 23)): 0.125 µg/mL; MIC ([7]; strain S. ep MSSE88 (Table 8 No. 5)): 0.5 µg/mL; MIC ([7]; strain S. ep MSSE113 (Table 7 No. 24)): 0.25 µg/mL; MIC ([7]; strain S. ep MSSE116 (Table 7 No. 25)): 0.25 µg/mL; MIC ([7]; strain S. ep MSSE118 (Table 8 No. 2)): 0.5 µg/mL; MIC ([7]; strain S. ep MSSE119 (Table 7 No. 27)): 0.25 µg/mL; MIC ([7]; strain S. ep MSSE137 (Table 8 No. 4)): 0.5 µg/mL; MIC ([7]; strain S. ep MSSE140 (Table 8 No. 3)): 0.5 µg/mL; MIC ([7]; strain S. ep MSSE142 (Table 7 No. 26)): 0.5 µg/mL; MIC ([7]; strain S. ep MSSE153 (Table 8 No. 1)): 0.5 µg/mL; MIC50 [8, 14]: 0.5 µg/mL; MIC90 [8, 14]: 0.5 µg/mL; MICrange [8, 14]: 0.5 to 1 µg/mL; MIC ([8]; strain S. MSSA 123 (Table 7 No. 3)): 0.5 µg/mL; MIC ([8]; strain S. MSSA 187 (Table 7 No. 7)): 0.5 µg/mL; MIC ([8]; strain S. MSSA 195 (Table 7 No. 6)): 1 µg/mL; MIC ([8]; strain S. MSSA 195 (Table 7 No. 12)): 0.5 µg/mL; MIC ([8]; strain S. MSSA 201 (Table 7 No. 11)): 0.5 µg/mL; MIC ([8]; strain S. MSSA 232 (Table 7 No. 2)): 0.5 µg/mL; MIC ([8]; strain S. MSSA 275 (Table 7 No. 10)): 0.5 µg/mL; MIC ([8]; strain S. MSSA 466 (Table 7 No. 8)): 0.5 µg/mL; MIC ([8]; strain S. MSSA 519 (Table 7 No. 9)): 0.5 µg/mL; MIC ([8]; strain S. MSSA 520 (Table 7 No. 4)): 0.25 µg/mL; MIC ([8]; strain S. MSSA 580 (Table 7 No. 5)): 0.25 µg/mL
